The target in the test is T1, SHP2 (residues 224-528) (Homo sapiens, UniProt Q06124).
T1 construct: 4× solution of SHP2 (residues 224-528)
T1 sequence (Q06124 224-528): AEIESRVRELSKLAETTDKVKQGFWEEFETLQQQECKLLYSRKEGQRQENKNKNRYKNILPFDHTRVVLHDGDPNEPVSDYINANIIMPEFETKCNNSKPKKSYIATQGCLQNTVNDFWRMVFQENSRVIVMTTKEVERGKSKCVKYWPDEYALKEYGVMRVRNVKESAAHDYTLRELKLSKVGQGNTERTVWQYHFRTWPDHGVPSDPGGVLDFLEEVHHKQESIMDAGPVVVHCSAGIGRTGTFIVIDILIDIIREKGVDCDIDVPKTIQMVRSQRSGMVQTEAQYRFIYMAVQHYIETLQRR
In words: Kinetic characterization of SHP2 inactivation (pNPP cleavage progress curves, kobs, kinact/KI). The class given is biochemical. To be noted: for kinact/KI / KI (inactivation) / kinact: substrate pNPP 3 mM, 100 nM SHP2, pH 7.0, 25° C; for fold decrease in efficacy: comparator not given. An excerpt: Covalent inhibitors work by forming a covalent bond with a reactive functional group in the target enzyme. Consequently, the kinetics for enzyme inactivation by a covalent inhibitor is not an equilibrium process as with reversible inhibition. The potency of a reversible inhibitor can be measured by its IC50 value. Unlike reversible inhibitors, where inhibition is only concentration-dependent, covalent inhibitors show both time- and concentration-dependent target inhibition (a covalent bond formation is a time-dependent event). If sufficient time is available, covalent inhibitors can completely neutralize the target, rather than go to equilibrium. As a result, the potency and selectivity of a covalent inhibitor cannot be determined by IC50 values; instead, the rate of inactivation of the target (kinact) and the inhibition constant (KI) were determined. The bimolecular rate constant (kinact/KI), was chosen to rank the potency of covalent inhibitors (Ruddraraju et al., 2017, Molecular Biosystems 13(7), 1257-1279).
PTPs catalyze the dephosphorylation of tyrosine-phosphorylated protein substrates through a conserved mechanism that relies on a catalytic cysteine residue (Zhang, Z.-Y et al., 2003, Prog. Nucleic Acid Research Molecular Biology, 73, 171-220). This provides a mechanistic rationale for the assessment of electrophilic Michael acceptors, such as those synthesized in the present disclosure as potential covalent inhibitors of the SHP2. The enzymatic cleavage of para-nitrophenyl phosphate by SHP2 was measured over time in the presence of 100 μM inhibitor or DMSO, to determine the observed first-order rate constant (kobs). Based on kobs values, compounds were further evaluated in a dose-dependent manner to determine the second-order rate constant (kinact/KI) indicating the overall efficacy of the compounds, which was used to assess the structure-activity relationship (SAR) for the analogs of interest and design additional analogs (see Table 1). […] It has been known that modifications to the electronegativity of substituents proximal to electrophilic centers alter the reactivity of the electrophile.
The efficacy of covalent inhibitors can be broken down into the initial reversible binding of the compounds (KI), and the rate of covalent bond formation and enzyme inactivation (kinact). These two constants can be used individually, or as a ratio to determine the overall efficacy of the inhibitor's efficacy. To investigate the contribution to reversible binding compound (34) was evaluated, which lacks the carbonyl of the Michael acceptor to prevent the formation of a covalent adduct.
Inhibitors were evaluated for their ability to inhibit the reaction catalyzed by SHP2 using para-nitrophenyl phosphate (pNPP) as a substrate at pH 7 and 25° C. A 2× solution of inhibitor was diluted into DMG buffer (50 mM 3,3-dimethylglutarate pH 7.0, 1 mM EDTA, ionic strength adjusted to 150 mM using NaCl) was added to a clear flat-bottom 96-well plate (Corning Costar Assay Plate #9017), and serially diluted 1.5-fold, resulting in 100 μL volumes of varying inhibitor concentrations. To this was added a 4× solution of pNPP (12 mM) in DMG buffer. The reaction was initialized by the addition of a 4× solution of SHP2 (residues 224-528), resulting in a final solution of: inhibitor (100-0 μM), pNPP (3 mM), and SHP2 (100 nM). The plate was then monitored for a change in absorbance ab […] using a CLARIOstar^Plus plate reader (BMG Labetch) over the course of an hour. The resulting progress curves for each inhibitor were imported into Graphpad Prism 9 (GraphPad Software, San Diego, CA (USA)), and a baseline correction analysis was completed for fitting purposes. Each curve was fit to the equation Y=V0×(1−e^−kobs*t)/kobs.^[17.22] The kobs values were then plotted against inhibitor concentrations. If the resulting graph was linear, the kinact/KI value was determined by the slope of that line and the 95% confidence interval (95% CI). […]

Where [1] appears, read: pH 7, role: inhibitor, read-out: kinact/KI (converted).

Entries after “also recorded” stand apart in the source; their conditions may differ. Where two headings read alike, the source gives them in different places.

In general, kinact refers to the rate constant of inactivation at saturating inhibitor.

In the case of `C=C1C(=O)[C@@]2(C(=O)N3CCCCCC3)CC(=O)C[C@@H]1C2` [Compound 20], under setting [1], the kinact/KI is 22.7 M⁻¹ s⁻¹.

On to `C=C1C(=O)[C@@]2(C(=O)N3CCN(c4ccc(OC)cc4)CC3)CC(=O)C[C@@H]1C2` [Compound 39], for which the kinact/KI under setting [1] is 46.5 M⁻¹ s⁻¹.

Regarding `C=C1C(=O)[C@@]2(C(=O)N3CCN(c4ccc(C(C)(C)C)cc4)CC3)CC(=O)C[C@@H]1C2` [Compound 40], the kinact/KI under setting [1] is 291 M⁻¹ s⁻¹.

As to `C=C1C(=O)[C@@]2(C(=O)N3CCN(c4ccc(-c5ccccc5)cc4)CC3)CC(=O)C[C@@H]1C2` [Compound 41], the kinact/KI under setting [1] was 311 M⁻¹ s⁻¹. Further, for the setting “role: inhibitor”, the KI (inactivation) was found to be 10.2 µM and the kinact was 0.00317 s⁻¹.

For `C=C1C(=O)[C@@]2(C(=O)N3CCN(c4ccc(Cl)cc4)CC3)CC(=O)C[C@@H]1C2` [Compound 36], under setting [1], the kinact/KI was 220 M⁻¹ s⁻¹.

Turning to `C=C1C(=O)[C@@]2(C(=O)N3CCN(C(=O)OC(C)(C)C)CC3)CC(=O)C[C@@H]1C2` [Compound 25], the kinact/KI under setting [1] is 28.1 M⁻¹ s⁻¹. For the same compound, the “SHP2 inhibition efficacy (in words)” value (role: inhibitor) is recorded as “able to inhibit the catalytic activity of SHP2”.

On to `C=C1C(=O)[C@@]2(C(=O)N3CCOCC3)CC(=O)C[C@@H]1C2` [Compound 21], for which, under setting [1], the kinact/KI was 16 M⁻¹ s⁻¹. Moreover, the “fold decrease in efficacy” value (role: inhibitor) was roughly 2 fold.

For the compound `C=C1C(=O)[C@@]2(C(=O)N3CC4(COC4)C3)CC(=O)C[C@@H]1C2` [Compound 22], under setting [1], the kinact/KI was 12.9 M⁻¹ s⁻¹. Also, the “fold decrease in efficacy” value (role: inhibitor) was roughly 2 fold.

With `C=C1C(=O)[C@@]2(C(=O)N3CCN(c4ccc(F)cc4)CC3)CC(=O)C[C@@H]1C2` [Compound 35], the kinact/KI under setting [1] was 97.6 M⁻¹ s⁻¹. For the setting “role: inhibitor”, the KI (inactivation) turned out to be 112 µM and the kinact is 0.0109 s⁻¹.

As for `C=C1C(=O)[C@@]2(C(=O)N3CCN(c4ccccc4C#N)CC3)CC(=O)C[C@@H]1C2` [Compound 32], under setting [1], the kinact/KI was 367 M⁻¹ s⁻¹. In addition, the “fold improvement in efficacy over the unsubstituted piperidine analog (19)” value (role: inhibitor, kinact/KI relative to 19) is “approximately 19 fold”. The “fold increase in efficacy relative to the unsubstituted phenyl ring” value (role: inhibitor, kinact/KI relative to unsubstituted phenyl) was 9.25 fold.

With `C=C1C(=O)[C@@]2(C(=O)N(CC)CC)CC(=O)C[C@@H]1C2` [Compound 12], the kinact/KI under setting [1] was 17.5 M⁻¹ s⁻¹. The “SHP2 inhibition efficacy (in words)” value (role: inhibitor) was “more effective than compound (11) and the cyclic matched molecular pair (MMP) compound (17)”.

For `C=C1CC2(C(=O)N3CCN(c4ccc(Br)cc4)CC3)CC(=O)CC1C2` (stereo not shown) [Compound 34], the “SHP2 inhibition efficacy (in words)” value (role: inhibitor) was “complete loss of SHP2 inhibition efficacy; also recorded: inactive against SHP2; also recorded: complete loss of activity”.

`C=C1C(=O)[C@@]2(C(=O)N3CCN(c4ccc(C)cc4)CC3)CC(=O)C[C@@H]1C2` [Compound 38]: under setting [1], the kinact/KI was 101 M⁻¹ s⁻¹. Also, under “role: inhibitor”, the KI (inactivation) came out at 176 µM and the kinact was 0.0172 s⁻¹.

As for `C=C1C(=O)[C@@]2(C(=O)NCCC)CC(=O)C[C@@H]1C2` [Compound 11], under setting [1], the kinact/KI is 14.3 M⁻¹ s⁻¹. In addition, under “role: inhibitor”, the “SHP2 inhibition efficacy (in words)” value is “slightly less potent than compound (10)” and the kinact/KI is 865.8 M^−1Min^−1.

As to `C=C1C(=O)[C@@]2(C(=O)N3CCCCC3)CC(=O)C[C@@H]1C2` [Compound 19], the kinact/KI under setting [1] was 19.4 M⁻¹ s⁻¹.

Turning to `C=C1C(=O)[C@@]2(C(=O)N3CCC(F)(F)CC3)CC(=O)C[C@@H]1C2` [Compound 23], the kinact/KI by setting is: under setting [1], 36.8 M⁻¹ s⁻¹; (role: inhibitor) 2,026.8 M^−1Min^−1. In addition, the “SHP2 inhibition efficacy (in words)” value (role: inhibitor) is “more effective SHP2 inhibitor”.

With `C=C1C(=O)[C@@]2(C(=O)N3CCN(c4ccccc4)CC3)CC(=O)C[C@@H]1C2` [Compound 30], the kinact/KI under setting [1] was 39.6 M⁻¹ s⁻¹. Moreover, the “SHP2 inhibition efficacy (in words)” value (role: inhibitor) is “small improvement in efficacy”.

On to `C=C1C(=O)[C@@]2(C(=O)N3CCCC3)CC(=O)C[C@@H]1C2` [Compound 17], for which the kinact/KI under setting [1] was 13.4 M⁻¹ s⁻¹.

For the compound `C=C1C(=O)[C@@]2(C(=O)N3CCN(C(C)=O)CC3)CC(=O)C[C@@H]1C2` [Compound 26], the kinact/KI under setting [1] was 15.4 M⁻¹ s⁻¹. Where the note is “role: inhibitor”, the “SHP2 inhibition efficacy (in words)” value was “able to inhibit the catalytic activity of SHP2”.

The values above are taken from US20260327239A1, “COMPOUNDS FOR COVALENT INHIBITION OF SHP2” (Purdue Research Foundation, priority 2023, published 2026).
